#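 Growth conditions: 96-well plates. Treatment: test compound, 48 hours, 5 concentrations. Analysis: linear interpolation between bracketing concentrations; unreached endpoints set to highest concentration. Here, GI50 denotes the concentration required for 50% inhibition of growth. TGI: total growth inhibition.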
# What was measured:
# Test in all cases: NCI tumour cell line growth inhibition, 48 h
# HCT-116 colon = system: HCT-116 colon
# NCI-H226 lung = system: NCI-H226 lung
# MOLT-4 leukemia = system: MOLT-4 leukemia
# CCRF-CEM leukemia = system: CCRF-CEM leukemia
# SF-268 CNS = system: SF-268 CNS
# MDA-MB-435 = system: MDA-MB-435
# OVCAR-4 ovarian = system: OVCAR-4 ovarian
# HL-60(TB) leukemia = system: HL-60(TB) leukemia
# UACC-62 melanoma = system: UACC-62 melanoma
# SN12C renal = system: SN12C renal
# NCI/ADR-RES ovarian = system: NCI/ADR-RES ovarian
# HCT-15 colon = system: HCT-15 colon
# MCF7 breast = system: MCF7 breast
# PC-3 prostate = system: PC-3 prostate
# SF-539 CNS = system: SF-539 CNS
# RPMI-8226 leukemia = system: RPMI-8226 leukemia
# MDA-MB-468 breast = system: MDA-MB-468 breast
# NCI-H23 lung = system: NCI-H23 lung
# K-562 leukemia = system: K-562 leukemia
# NCI-H522 lung = system: NCI-H522 lung
# EKVX NSCLC = system: EKVX NSCLC
# LOX IMVI melanoma = system: LOX IMVI melanoma
# MALME-3M melanoma = system: MALME-3M melanoma
# A498 renal = system: A498 renal
# 786-0 renal = system: 786-0 renal
# SR leukemia = system: SR leukemia
# SK-OV-3 ovarian = system: SK-OV-3 ovarian
# UACC-257 melanoma = system: UACC-257 melanoma
# OVCAR-3 ovarian = system: OVCAR-3 ovarian
# RXF 393 renal = system: RXF 393 renal
# OVCAR-5 ovarian = system: OVCAR-5 ovarian
# OVCAR-8 ovarian = system: OVCAR-8 ovarian
# KM12 colon = system: KM12 colon
# SW-620 colon = system: SW-620 colon
# A549 NSCLC = system: A549 NSCLC
# CAKI-1 renal = system: CAKI-1 renal
# T-47D breast = system: T-47D breast
# NCI-H460 lung = system: NCI-H460 lung
# SK-MEL-28 melanoma = system: SK-MEL-28 melanoma
# COLO 205 colon = system: COLO 205 colon
# HOP-92 NSCLC = system: HOP-92 NSCLC
# IGROV1 ovarian = system: IGROV1 ovarian
# SNB-19 CNS = system: SNB-19 CNS
# U251 CNS = system: U251 CNS
# HOP-62 NSCLC = system: HOP-62 NSCLC
# HT29 colon = system: HT29 colon
# SF-295 CNS = system: SF-295 CNS
# DU-145 prostate = system: DU-145 prostate
# ACHN renal = system: ACHN renal
# HCC-2998 colon = system: HCC-2998 colon
# HS 578T breast = system: HS 578T breast
# M14 melanoma = system: M14 melanoma
# BT-549 breast = system: BT-549 breast
# SK-MEL-5 melanoma = system: SK-MEL-5 melanoma
# TK-10 renal = system: TK-10 renal
structure (smiles),measurement,setting,value
Clc1ccc(-c2nc3c4c(-c5ccccc5)c(-c5ccccc5)n(Cc5ccccc5)c4ncn3n2)cc1,GI50,HCT-116 colon,3.53 µM
same,TGI,HCT-116 colon,35.2 µM
same,GI50,NCI-H226 lung,16.3 µM
same,TGI,NCI-H226 lung,56.9 µM
same,GI50,MOLT-4 leukemia,11.7 µM
same,TGI,MOLT-4 leukemia,58.2 µM
same,GI50,CCRF-CEM leukemia,9.15 µM
same,TGI,CCRF-CEM leukemia,51 µM
same,GI50,SF-268 CNS,12.2 µM
same,TGI,SF-268 CNS,> 100 µM
same,GI50,MDA-MB-435,4.92 µM
same,TGI,MDA-MB-435,71.3 µM
same,GI50,OVCAR-4 ovarian,10.3 µM
same,TGI,OVCAR-4 ovarian,> 100 µM
same,GI50,HL-60(TB) leukemia,3.08 µM
same,TGI,HL-60(TB) leukemia,15.5 µM
same,GI50,UACC-62 melanoma,3.59 µM
same,TGI,UACC-62 melanoma,15.2 µM
same,GI50,SN12C renal,7.73 µM
same,TGI,SN12C renal,46 µM
same,GI50,NCI/ADR-RES ovarian,24.2 µM
same,TGI,NCI/ADR-RES ovarian,97 µM
same,GI50,HCT-15 colon,20.5 µM
same,TGI,HCT-15 colon,> 100 µM
same,GI50,MCF7 breast,8.31 µM
same,TGI,MCF7 breast,61.8 µM
same,GI50,PC-3 prostate,3.51 µM
same,TGI,PC-3 prostate,97.3 µM
same,GI50,SF-539 CNS,15.8 µM
same,TGI,SF-539 CNS,33.5 µM
same,GI50,RPMI-8226 leukemia,2.46 µM
same,TGI,RPMI-8226 leukemia,8.69 µM
same,GI50,MDA-MB-468 breast,2.84 µM
same,TGI,MDA-MB-468 breast,10.3 µM
same,GI50,NCI-H23 lung,6.88 µM
same,TGI,NCI-H23 lung,44.4 µM
same,GI50,K-562 leukemia,4.84 µM
same,TGI,K-562 leukemia,> 100 µM
same,GI50,NCI-H522 lung,5.95 µM
same,TGI,NCI-H522 lung,43.7 µM
same,GI50,EKVX NSCLC,4.6 µM
same,TGI,EKVX NSCLC,48.7 µM
same,GI50,LOX IMVI melanoma,10.9 µM
same,TGI,LOX IMVI melanoma,25.2 µM
same,GI50,MALME-3M melanoma,2.75 µM
same,TGI,MALME-3M melanoma,9.5 µM
same,GI50,A498 renal,23 µM
same,TGI,A498 renal,63 µM
same,GI50,786-0 renal,12.6 µM
same,TGI,786-0 renal,93.3 µM
same,GI50,SR leukemia,13 µM
same,TGI,SR leukemia,36.5 µM
same,GI50,SK-OV-3 ovarian,12.8 µM
same,TGI,SK-OV-3 ovarian,46.7 µM
same,GI50,UACC-257 melanoma,4.17 µM
same,TGI,UACC-257 melanoma,34.2 µM
same,GI50,OVCAR-3 ovarian,4.76 µM
same,TGI,OVCAR-3 ovarian,> 100 µM
same,GI50,RXF 393 renal,14.2 µM
same,TGI,RXF 393 renal,39.9 µM
same,GI50,OVCAR-5 ovarian,21.3 µM
same,TGI,OVCAR-5 ovarian,90.3 µM
same,GI50,OVCAR-8 ovarian,12.5 µM
same,TGI,OVCAR-8 ovarian,> 100 µM
same,GI50,KM12 colon,5.17 µM
same,TGI,KM12 colon,36.5 µM
same,GI50,SW-620 colon,12.5 µM
same,TGI,SW-620 colon,> 100 µM
same,GI50,A549 NSCLC,20.6 µM
same,TGI,A549 NSCLC,> 100 µM
same,GI50,CAKI-1 renal,21.4 µM
same,TGI,CAKI-1 renal,89.2 µM
same,GI50,T-47D breast,3.5 µM
same,TGI,T-47D breast,62.5 µM
same,GI50,NCI-H460 lung,8.24 µM
same,TGI,NCI-H460 lung,35.4 µM
same,GI50,SK-MEL-28 melanoma,5.33 µM
same,TGI,SK-MEL-28 melanoma,47.1 µM
same,GI50,COLO 205 colon,4.66 µM
same,TGI,COLO 205 colon,16.8 µM
same,GI50,HOP-92 NSCLC,1.9 µM
same,TGI,HOP-92 NSCLC,9.53 µM
same,GI50,IGROV1 ovarian,8.02 µM
same,TGI,IGROV1 ovarian,85.8 µM
same,GI50,SNB-19 CNS,4.8 µM
same,TGI,SNB-19 CNS,> 100 µM
same,GI50,U251 CNS,4.58 µM
same,TGI,U251 CNS,33.5 µM
same,GI50,HOP-62 NSCLC,16.1 µM
same,TGI,HOP-62 NSCLC,38.4 µM
same,GI50,HT29 colon,6.18 µM
same,TGI,HT29 colon,> 100 µM
same,GI50,SF-295 CNS,11.5 µM
same,TGI,SF-295 CNS,25.7 µM
same,GI50,DU-145 prostate,19.1 µM
same,TGI,DU-145 prostate,> 100 µM
same,GI50,ACHN renal,20.8 µM
same,TGI,ACHN renal,79.7 µM
same,GI50,HCC-2998 colon,6.37 µM
same,TGI,HCC-2998 colon,39.7 µM
same,GI50,HS 578T breast,9.38 µM
same,TGI,HS 578T breast,38.2 µM
same,GI50,M14 melanoma,12 µM
same,TGI,M14 melanoma,77.7 µM
same,GI50,BT-549 breast,4.35 µM
same,TGI,BT-549 breast,22.5 µM
same,GI50,SK-MEL-5 melanoma,3.26 µM
same,TGI,SK-MEL-5 melanoma,12.9 µM
same,GI50,TK-10 renal,19 µM
same,TGI,TK-10 renal,> 100 µM

# Reference: PubChem BioAssay (NCI)
